SMILES strings stand for the structures. Where two headings read alike, the source gives them in different places.

The results in this text go back to US9126941B2, “Treatment of hyperproliferative disorders with diarylhydantoin compounds” (The Regents of the University of California, priority 2005, dated 2015).

For assay [1], the target named is T1, AR (Homo sapiens, UniProt P10275). The assay is described as follows: cell-based. To be noted: for IC50 (nM) Reporter: LNCaP-AR, 100 pM R1881, two days, No = did not inhibit AR response reporter; for Rank order, most active to least active, relative luciferase activity (FIG. 3): 500 nM. It counts as cell-based. The protocol:
The compounds were subjected to tests using an artificial AR response reporter system in a hormone refractory prostate cancer cell line. […] After two days of incubation, reporter activities were assayed.

In assay [2] the target is T1, AR. The assay can be described thus: cell-based. It counts as cell-based. The protocol:
It is well established that PSA levels are indicators of AR activities in prostate cancer. […] The LNCaP-AR cells are a line of lymph node carcinoma of prostate cells transduced with a plasmid that makes express androgen receptors. […] After four days incubation, secreted PSA levels were assayed using PSA ELISA kits (American Qualex, San Clemente, Calif.)

T1 sequence (P10275 whole entry, looked up): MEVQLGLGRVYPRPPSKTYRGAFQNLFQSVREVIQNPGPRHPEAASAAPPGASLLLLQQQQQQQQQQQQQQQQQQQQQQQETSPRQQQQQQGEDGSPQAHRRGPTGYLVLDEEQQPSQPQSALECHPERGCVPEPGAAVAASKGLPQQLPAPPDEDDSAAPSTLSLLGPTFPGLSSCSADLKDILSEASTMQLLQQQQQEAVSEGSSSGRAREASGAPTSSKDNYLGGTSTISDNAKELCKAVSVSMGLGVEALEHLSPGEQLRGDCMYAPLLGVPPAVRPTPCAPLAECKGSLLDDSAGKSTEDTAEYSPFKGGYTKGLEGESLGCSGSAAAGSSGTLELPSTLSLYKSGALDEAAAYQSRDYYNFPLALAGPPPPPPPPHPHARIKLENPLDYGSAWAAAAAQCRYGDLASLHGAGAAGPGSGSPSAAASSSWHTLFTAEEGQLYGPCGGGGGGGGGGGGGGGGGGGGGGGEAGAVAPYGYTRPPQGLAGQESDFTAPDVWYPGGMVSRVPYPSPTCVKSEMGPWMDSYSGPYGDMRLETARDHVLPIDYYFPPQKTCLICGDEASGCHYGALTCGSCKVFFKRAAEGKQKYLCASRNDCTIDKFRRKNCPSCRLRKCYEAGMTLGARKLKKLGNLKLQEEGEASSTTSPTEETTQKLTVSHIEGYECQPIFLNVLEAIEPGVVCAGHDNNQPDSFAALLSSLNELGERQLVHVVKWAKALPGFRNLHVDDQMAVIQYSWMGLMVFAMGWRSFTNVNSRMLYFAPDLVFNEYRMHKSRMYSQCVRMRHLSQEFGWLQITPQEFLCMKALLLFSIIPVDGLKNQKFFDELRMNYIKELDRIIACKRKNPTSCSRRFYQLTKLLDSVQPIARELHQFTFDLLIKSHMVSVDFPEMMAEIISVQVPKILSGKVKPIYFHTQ

Usually IC50 stands for the concentration that inhibits the measured activity by half. For the compound `CC1(C)C(=O)N(c2ccc(C#N)c(C(F)(F)F)c2)C(=S)N1c1ccccc1` [Example 6-2, 4-[3-phenyl-4,4-dimethyl-5-oxo-2-thioxoimidazolidin-1-yl]-2-trifluoromethylbenzonitrile], the IC50 against AR [1] worked out at 149 nM. Compound `CC1(C)C(=O)N(c2ccc(C#N)c(C(F)(F)F)c2)C(=S)N1c1ccc(N)cc1` [RD9, 4-[3-(4-aminophenyl)-4,4-dimethyl-5-oxo-2-thioxoimidazolidin-1-yl]-2-trifluoromethylbenzonitrile] showed an IC50 against AR [1] of 273 nM.

On to `CC1(C)C(=O)N(c2ccc(C#N)c(C(F)(F)F)c2)C(=S)N1c1ccc(OC(=O)CCl)cc1` [RD13, Chloroacetic acid 4-[3-(4-cyano-3-trifluoromethylphenyl)-5,5-dimethyl-4-oxo-2-thioxoimidazolidin-1-yl]phenyl ester], for which the IC50 against AR [1] turned out to be 131 nM. The same measure, in the same setting: the result for `Cc1ccc(N2C(=S)N(c3ccc(C#N)c(C(F)(F)F)c3)C(=O)C23CCCC3)cc1` [RD35, 4-(4-oxo-2-thioxo-1-(4-methylphenyl)-1,3-diazaspiro[4.4]non-3-yl)-2-trifluoromethylbenzonitrile] reads 147 nM; that for `Cc1ccc(N2C(=S)N(c3ccc(C#N)c(C(F)(F)F)c3)C(=O)C23CCCCC3)cc1` [RD48, 4-(4-oxo-2-thioxo-1-(4-methylphenyl)-1,3-diazaspiro[4.5]dec-3-yl)-2-trifluoromethylbenzonitrile], 194 nM.

As for `CN1CCC2(CC1)NC(=S)N(c1ccc(C#N)c(C(F)(F)F)c1)C2=O` [RD52, 4-(8-methyl-4-oxo-2-thioxo-1,3,8-triazaspiro[4.5]dec-3-yl)-2-trifluoromethylbenzonitrile, reference compound], on AR [1], the “IC50 (nM) Reporter” value is “No”.

At AR [1], `Cc1ccc(N2C(=S)N(c3ccc(C#N)c(C(F)(F)F)c3)C(=O)C23CCN(C)CC3)cc1` [RD53, 4-(8-methyl-4-oxo-2-thioxo-1-(4-methylphenyl)-1,3,8-triazaspiro[4.5]dec-3-yl)-2-trifluoromethylbenzonitrile] yielded an IC50 of 638 nM. Same read-out and setting: to `N#Cc1ccc(N2C(=O)C3(CCCC3)N(c3ccc([N+](=O)[O-])cc3)C2=S)cc1C(F)(F)F` [RD55, 4-[1-(4-nitrophenyl)-4-oxo-2-thioxo-1,3-diazaspiro[4.4]non-3-yl]-2-trifluoromethylbenzonitrile] belongs 498 nM; to `N#Cc1ccc(N2C(=O)C3(CCC3)N(c3ccc(-c4ccccc4)cc3)C2=S)cc1C(F)(F)F` [RD57, 4-(8-oxo-6-thioxo-5-(4-biphenyl)-5,7-diazaspiro[3.4]oct-7-yl)-2-trifluoromethylbenzonitrile], 283 nM.

The compound `N#Cc1ccc(N2C(=O)C3(CCC3)N(c3ccc(O)cc3)C2=S)cc1C(F)(F)F` [RD58, 4-(8-oxo-6-thioxo-5-(4-hydroxyphenyl)-5,7-diazaspiro[3.4]oct-7-yl)-2-trifluoromethylbenzonitrile] came in with an IC50 at AR [1] of 162 nM.

For the compound `CC1(C)C(=O)N(c2ccc(C#N)c(C(F)(F)F)c2)C(=S)N1c1ccccn1` [RD82, 4-[4,4-dimethyl-3-(4-pyridin-2-yl)-5-oxo-2-thioxoimidazolidin-1-yl]-2-trifluoromethylbenzonitrile], on AR [1], the IC50 was determined as 723 nM. This IC50 lies about 4.5-fold higher than the previous one. For `Cc1ccnc(N2C(=S)N(c3ccc(C#N)c(C(F)(F)F)c3)C(=O)C2(C)C)c1` [RD83, 4-[4,4-dimethyl-3-(4-methylpyridin-2-yl)-5-oxo-2-thioxoimidazolidin-1-yl]-2-trifluoromethylbenzonitrile], on AR [1], the IC50 was found to be 457 nM. Against the preceding compound, the IC50 is about 1.6-fold lower. In turn, `Cc1cc(N2C(=S)N(c3ccc(C#N)c(C(F)(F)F)c3)C(=O)C23CCC3)[nH]n1` [RD84, 4-[5-(5-methyl-2H-pyrazol-3-yl)-8-oxo-6-thioxo-5,7-diaza-spiro[3.4]oct-7-yl]-2-trifluoromethyl-benzonitrile, reference compound] gave an IC50 on AR [1] greater than 1000 nM.

As to `N#Cc1ccc(N2C(=O)C3(CCC3)N(c3ccc(C=O)cc3)C2=S)cc1C(F)(F)F` [RD114, 4-[5-(4-formylphenyl)-8-oxo-6-thioxo-5,7-diazaspiro[3.4]oct-7-yl]-2-trifluoromethyl-benzonitrile], on AR [2], the IC50 was 263 nM. The same measure, in the same setting: the result for `CC(O)c1ccc(N2C(=S)N(c3ccc(C#N)c(C(F)(F)F)c3)C(=O)C23CCC3)cc1` (stereo not drawn) [RD116, 4-{5-[4-(1-hydroxyethyl)-phenyl]-8-oxo-6-thioxo-5,7-diazaspiro[3.4]oct-7-yl}-2-trifluoromethyl-benzonitrile] reads 187 nM; that for `N#Cc1ccc(N2C(=O)C3(CCC3)N(c3ccc(/C=C/C(N)=O)cc3)C2=S)cc1C(F)(F)F` [RD119, 3-{4-[7-(4-Cyano-3-trifluoromethyl-phenyl)-8-oxo-6-thioxo-5,7-diaza-spiro[3.4]oct-5-yl]-phenyl}-acrylamide], 113 nM. Take `COC(=O)CCc1ccc(N2C(=S)N(c3ccc(C#N)c(C(F)(F)F)c3)C(=O)C23CCC3)cc1` [RD128, 3-{4-[7-(4-cyano-3-trifluoromethylphenyl)-8-oxo-6-thioxo-5,7-diazaspiro[3.4]oct-5-yl]-phenyl}-propionic acid methyl ester]: on AR [1], the “IC50 (nM) Reporter” value was “No”. For the compound `COC(=O)CCCc1ccc(N2C(=S)N(c3ccc(C#N)c(C(F)(F)F)c3)C(=O)C23CCC3)cc1` [RD129, 4-{4-[7-(4-cyano-3-trifluoromethylphenyl)-8-oxo-6-thioxo-5,7-diazaspiro[3.4]oct-5-yl]-phenyl}-butyric acid methyl ester], at AR [1], it took 432 nM to reach half-maximal inhibition (IC50). For the compound `CS(=O)(=O)c1ccc(N2C(=S)N(c3ccc(C#N)c(C(F)(F)F)c3)C(=O)C23CCC3)cc1` [RD145, 4-[5-(4-methanesulfonylphenyl)-8-oxo-6-thioxo-5,7-diazaspiro[3.4]oct-7-yl]-2-trifluoromethylbenzonitrile], on AR [1], the “Luciferase activity in LNCaP-AR cells (FIG. 3)” value was “acted to reduce luciferase activity” and the “Rank order, most active to least active, relative luciferase activity (FIG. 3)” value is given as “RD152>RD153>RD145>RD163>RD161=RD162>bicalutamide”. As for `COC(=O)c1ccc(N2C(=S)N(c3ccc(C#N)c(C(F)(F)F)c3)C(=O)C2(C)C)cc1` [RD152, 4-[3-(4-cyano-3-trifluoromethylphenyl)-5,5-dimethyl-4-oxo-2-thioxo-imidazolidin-1-yl]benzoic acid methyl ester], on AR [1], the “Luciferase activity in LNCaP-AR cells (FIG. 3)” value is “acted to reduce luciferase activity” and the “Rank order, most active to least active, relative luciferase activity (FIG. 3)” value was “RD152>RD153>RD145>RD163>RD161=RD162>bicalutamide”. As to `CNC(=O)c1ccc(N2C(=S)N(c3ccc(C#N)c(C(F)(F)F)c3)C(=O)C2(C)C)cc1` [RD153, 4-[3-(4-cyano-3-trifluoromethylphenyl)-5,5-dimethyl-4-oxo-2-thioxo-imidazolidin-1-yl]-N-methylbenzamide], on AR [1], the “Luciferase activity in LNCaP-AR cells (FIG. 3)” value is “acted to reduce luciferase activity” and the “Rank order, most active to least active, relative luciferase activity (FIG. 3)” value is on record as “RD152>RD153>RD145>RD163>RD161=RD162>bicalutamide”. Also, the “Luciferase activity, LN/AR cell line (FIG. 29)” value on AR [1] (for a given concentration, 125 nmol to 1000 nmol) was “less than the luciferase activity upon exposure to RD155”. Consider `N#Cc1ccc(N2C(=O)C3(CCC3)N(c3ccc(O)cc3F)C2=S)cc1C(F)(F)F` [RD163, 4-[5-(2-fluoro-4-hydroxyphenyl)-8-oxo-6-thioxo-5,7-diazaspiro[3.4]oct-7-yl]-2-trifluoromethylbenzonitrile], for which, on AR [1], the “Luciferase activity in LNCaP-AR cells (FIG. 3)” value was “acted to reduce luciferase activity” and the “Rank order, most active to least active, relative luciferase activity (FIG. 3)” value is given as “RD152>RD153>RD145>RD163>RD161=RD162>bicalutamide”.
